Source: patent publication US20240400564A1 (Syndax Pharmaceuticals, Inc, priority 2021, published 2024)

Key:
[1] = test system: MLLr leukemia cell line MV4-11; assay: Cell proliferation assay MV4;11 (CellTiter-Glo, 72 hours); format: cell-based; conditions: Homo sapiens; MV4-11 cells, 72 hours, CellTiter-Glo; read-out: MV4; 11 IC50
Experimental: Compounds were evaluated for its capacity to inhibit the proliferation of the MLLr leukemia cell line MV4-11 that harbors an MLL1-AF4 fusion protein. MV4-11 cells were cultured for 72 hours with limiting dilutions of compounds and viability was measured using CellTiter-Glo.
Compounds were dissolved to obtain as 10 mM solution in DMSO. The stock was diluted 1:5 to the top concentration of 2 mM in 100% DMSO. For IC50 determination, serial 1:3.16 dilutions were prepared in 100% DMSO by diluting 20 μL into 43.5 μL of DMSO for 8 concentrations. Each prepared DMSO solution were further diluted 1:500 in the cell culture media to obtain the 2× dosing solutions. The final concentrations of tested compounds in the cell culture media ranged from 0.632 nM to 2000 nM.
MV4-11 cells were cultured in IMDM with 10% FBS and 1× Penicillin-Streptomycin at 5% CO2 and 37° C. A cell suspension was prepared containing 15,000 cells/ml in the culture medium and 100 μL of this suspension was added per well to a 96-well cell culture plate. Then, 100 μL of 2× dosing media containing test compounds were added bringing the total volume to 200 μL. These cells were cultured for 72 hours at 37° C. and 5% CO2 in a humidified incubator.
After 72 hours, the cultured cells were mixed and 100 μL was transferred to a 96-well black plate. Cell Titer Glo (100 μl) was then added to this plate. The plate was mixed with shaking for 15 mins at RT, the luminescence was then measured using Tecan Spark 20M spectrophotometer. Cell Viability (%) was determined by RLU of test/RLU average vehicle control*100 and % max inhibition was determined by 100−(% cell viability remaining at the top concentration of compound).

hERG = hERG (Homo sapiens, UniProt Q12809); assay: Patch clamp assay (hERG tail currents, whole-cell)
Chain of hERG (Q12809 whole entry): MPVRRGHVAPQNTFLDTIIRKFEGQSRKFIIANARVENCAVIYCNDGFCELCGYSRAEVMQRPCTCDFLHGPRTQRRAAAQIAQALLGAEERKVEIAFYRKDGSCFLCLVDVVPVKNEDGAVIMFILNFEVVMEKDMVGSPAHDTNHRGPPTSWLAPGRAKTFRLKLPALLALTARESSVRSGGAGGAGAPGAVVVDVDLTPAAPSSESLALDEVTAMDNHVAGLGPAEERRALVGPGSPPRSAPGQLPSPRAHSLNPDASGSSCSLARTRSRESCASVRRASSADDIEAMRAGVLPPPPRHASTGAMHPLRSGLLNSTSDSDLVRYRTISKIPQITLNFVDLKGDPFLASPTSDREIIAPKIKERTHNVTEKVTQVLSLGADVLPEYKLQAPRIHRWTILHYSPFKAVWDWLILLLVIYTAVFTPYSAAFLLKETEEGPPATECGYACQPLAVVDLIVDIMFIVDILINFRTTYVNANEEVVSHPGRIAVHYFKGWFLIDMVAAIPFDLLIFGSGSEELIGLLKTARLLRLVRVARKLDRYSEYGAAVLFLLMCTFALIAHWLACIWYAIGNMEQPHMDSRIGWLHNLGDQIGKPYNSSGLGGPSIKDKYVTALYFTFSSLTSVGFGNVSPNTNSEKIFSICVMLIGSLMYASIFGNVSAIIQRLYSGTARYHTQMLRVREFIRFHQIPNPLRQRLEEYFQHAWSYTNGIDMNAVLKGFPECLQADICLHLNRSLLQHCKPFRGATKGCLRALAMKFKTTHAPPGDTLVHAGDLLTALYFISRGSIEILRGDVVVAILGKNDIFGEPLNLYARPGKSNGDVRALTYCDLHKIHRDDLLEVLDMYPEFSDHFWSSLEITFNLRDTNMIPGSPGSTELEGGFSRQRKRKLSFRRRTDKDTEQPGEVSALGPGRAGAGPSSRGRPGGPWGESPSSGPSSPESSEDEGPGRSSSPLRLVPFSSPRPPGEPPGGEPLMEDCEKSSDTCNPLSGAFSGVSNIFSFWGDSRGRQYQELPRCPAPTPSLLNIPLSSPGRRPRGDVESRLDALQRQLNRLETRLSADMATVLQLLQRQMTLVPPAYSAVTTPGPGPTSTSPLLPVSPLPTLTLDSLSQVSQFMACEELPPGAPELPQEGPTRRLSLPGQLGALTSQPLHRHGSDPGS
Experimental: The 35 mm culture dishes upon which cells were seeded at a density allowing single cells to be recorded were placed on the dish holder of the microscope and continuously perfused (at approximately 1 mL/min) with the bath solution described in section 4.6. All solutions applied to cells including the pipette solution were maintained at room temperature (19° C. to 30° C.). After formation of a Gigaohm seal between the patch electrodes and individual hERG stably transfected HEK 293 cells (pipette resistance range: 2.0 MS to 7.0 MS; seal resistance range: >1GΩ) the cell membrane across the pipette tip was ruptured to assure electrical access to the cell interior (whole-cell patch-configuration). In case the quality of the seal was poor, the process of seal formation was repeated with a different cell and a new pipette. As soon as a stable seal could be established, hERG outward tail currents were measured upon depolarization of the cell membrane to +20 mV for 2 s (activation of channels) from a holding potential of −80 mV and upon subsequent repolarization to −40 mV for 3 s. This voltage protocol (as shown below) was run at least 10 times at intervals of 10 s. If current density was judged to be too low for measurement, another cell was recorded.
During wash-in of the test item the voltage protocol indicated above was run continuously again at 10 s intervals until the steady-state level of block was reached.
The IC50 was determined by fitting the dose response curve with a 2-parameter logistic function (amax=100%).

| SMILES | IC50 [1] | hERG % Remaining (hERG; 10 μM compound) | hERG % Remaining (hERG; 30 μM compound) |
| --- | --- | --- | --- |
| CCN(C(=O)c1cc(F)ccc1Oc1cncnc1N1CC2(CCN(C[C@@H]3CC[C@@H](NS(=O)(=O)N4CCC[C@@H]4C)CO3)CC2)C1)C(C)C [Example 201, N-Ethyl-5-fluoro-N-isopropyl-2-((4-(7-(((2S,5R)-5-(((S)-2-methylpyrrolidine)-1-sulfonamido)tetrahydro-2H-pyran-2-yl)methyl)-2,7-diazaspiro[3.5]nonan-2-yl)pyrimidin-5-yl)oxy)benzamide] | < 100 nM | + (<33%) | + (<33%) |
| Cc1nc(S(=O)(=O)N[C@@H]2CC[C@@H](CN3CCC4(CC3)CN(c3ncncc3Oc3ccc(F)cc3C(=O)N(C(C)C)C(C)C)C4)OC2)co1 [Example 91, 5-Fluoro-N,N-diisopropyl-2-((4-(7-(((2S,5R)-5-((2-methyloxazole)-4-sulfonamido)tetrahydro-2H-pyran-2-yl)methyl)-2,7-diazaspiro[3.5]nonan-2-yl)pyrimidin-5-yl)oxy)benzamide] | < 100 nM | – | ++ (233% and ≤66%) |
| CCN(C(=O)c1cc(F)ccc1Oc1cncnc1N1CC2(CCN(C[C@@H]3CC[C@@H](NS(=O)(=O)N4CCC[C@H]4C)CO3)CC2)C1)C(C)C [Example 200, N-Ethyl-5-fluoro-N-isopropyl-2-((4-(7-(((2S,5R)-5-(((R)-2-methylpyrrolidine)-1-sulfonamido)tetrahydro-2H-pyran-2-yl)methyl)-2,7-diazaspiro[3.5]nonan-2-yl)pyrimidin-5-yl)oxy)benzamide] | < 100 nM | ++ (233% and ≤66%) | + (<33%) |
| CC(C)N(CC(F)F)C(=O)c1cc(F)ccc1Oc1cncnc1N1CC2(CCN(C[C@@H]3CC[C@@H](NS(=O)(=O)c4nn(C)cc4F)CO3)CC2)C1 [Example 241, N-(2,2-Difluoroethyl)-5-fluoro-2-((4-(7-(((2S,5R)-5-((4-fluoro-1-methyl-1H-pyrazole)-3-sulfonamido)tetrahydro-2H-pyran-2-yl)methyl)-2,7-diazaspiro[3.5]nonan-2-yl)pyrimidin-5-yl)oxy)-N-isopropylbenzamide] | < 100 nM | – | ++ (233% and ≤66%) |
| Cc1ncc(S(=O)(=O)N[C@@H]2CC[C@@H](CN3CCC4(CC3)CN(c3ncncc3Oc3ccc(F)cc3C(=O)N(C(C)C)C(C)C)C4)OC2)s1 [Example 84, 5-Fluoro-N,N-diisopropyl-2-((4-(7-(((2S,5R)-5-((2-methylthiazole)-5-sulfonamido)tetrahydro-2H-pyran-2-yl)methyl)-2,7-diazaspiro[3.5]nonan-2-yl)pyrimidin-5-yl)oxy)benzamide] | < 100 nM | ++ (233% and ≤66%) | + (<33%) |
| Cc1nn(C)cc1S(=O)(=O)N[C@@H]1CC[C@@H](CN2CCC3(CC2)CN(c2ncncc2Oc2ccc(F)cc2C(=O)N(CC(F)F)C(C)C)C3)OC1 [Example 105, N-(2,2-Difluoroethyl)-2-((4-(7-(((2S,5R)-5-((1,3-dimethyl-1H-pyrazole)-4-sulfonamido)tetrahydro-2H-pyran-2-yl)methyl)-2,7-diazaspiro[3.5]nonan-2-yl)pyrimidin-5-yl)oxy)-5-fluoro-N-isopropylbenzamide] | < 100 nM | – | +++ (≥66%) |
| CC(C)N(CC(F)F)C(=O)c1cc(F)ccc1Oc1cncnc1N1CC2(CCN(C[C@@H]3CC[C@@H](NS(=O)(=O)N4CC(O)C4)CO3)CC2)C1 [Example 237, N-(2,2-Difluoroethyl)-5-fluoro-2-((4-(7-(((2S,5R)-5-((3-hydroxyazetidine)-1-sulfonamido)tetrahydro-2H-pyran-2-yl)methyl)-2,7-diazaspiro[3.5]nonan-2-yl)pyrimidin-5-yl)oxy)-N-isopropylbenzamide] | < 100 nM | – | – |
| CC(C)N(C(=O)c1cc(F)ccc1Oc1cncnc1N1CC2(CCN(C[C@@H]3CC[C@@H](NS(=N)(=O)C4CC4)CO3)CC2)C1)C(C)C (stereo partly drawn) [Example 233, 2-((4-(7-(((2S,5R)-5-(Cyclopropanesulfonoamidimidamido)tetrahydro-2H-pyran-2-yl)methyl)-2,7-diazaspiro[3.5]nonan-2-yl)pyrimidin-5-yl)oxy)-5-fluoro-N,N-diisopropylbenzamide] | < 100 nM | – | – |
| Cc1nc(S(=O)(=O)N[C@@H]2CC[C@@H](CN3CCC4(CC3)CN(c3ncncc3Oc3ccc(F)cc3C(=O)N(C)C(C)C)C4)OC2)cs1 [Example 54, 5-Fluoro-N-isopropyl-N-methyl-2-((4-(7-(((2S,5R)-5-((2-methylthiazole)-4-sulfonamido)tetrahydro-2H-pyran-2-yl)methyl)-2,7-diazaspiro[3.5]nonan-2-yl)pyrimidin-5-yl)oxy)benzamide] | < 100 nM | – | – |
| CC(C)N(CC(F)F)C(=O)c1cc(F)ccc1Oc1cncnc1N1CC2(CCN(C[C@@H]3CC[C@@H](NS(=O)(=O)C4CCOCC4)CO3)CC2)C1 [Example 98, N-(2,2-Difluoroethyl)-5-fluoro-N-isopropyl-2-((4-(7-(((2S,5R)-5-((tetrahydro-2H-pyran)-4-sulfonamido)tetrahydro-2H-pyran-2-yl)methyl)-2,7-diazaspiro[3.5]nonan-2-yl)pyrimidin-5-yl)oxy)benzamide] | < 100 nM | – | – |
| CC(C)N(C(=O)c1cc(F)ccc1Oc1cncnc1N1CC2(CCN(C[C@@H]3CC[C@@H](NS(C)(=O)=O)CO3)CC2)C1)C1CC(F)(F)C1 [Example 112, N-(3,3-Difluorocyclobutyl)-5-fluoro-N-isopropyl-2-((4-(7-(((2S,5R)-5-(methylsulfonamido)tetrahydro-2H-pyran-2-yl)methyl)-2,7-diazaspiro[3.5]nonan-2-2-yl)pyrimidin-5-yl)oxy)benzamide] | < 100 nM | – | – |
| CC(C)N(C(=O)c1cc(F)ccc1Oc1cncnc1N1CC2(CCN(C[C@@H]3CC[C@@H](NS(=N)(=O)c4ccccc4)CO3)CC2)C1)C(C)C (mixture of isomers) [Example 228, 5-Fluoro-N,N-diisopropyl-2-((4-(7-(((2S,5R)-5-(phenylsulfonoamidimidamido)tetrahydro-2H-pyran-2-yl)methyl)-2,7-diazaspiro[3.5]nonan-2-yl)pyrimidin-5-yl)oxy)benzamide] | < 100 nM | – | – |
| CCS(=O)(=O)N[C@@H]1CC[C@@H](CN2CCC3(CC2)CN(c2ncncc2Oc2ccc(F)cc2C(=O)N(C(C)C)[C@H]2C[C@H](O)C2)C3)OC1 [Example 259, 2-((4-(7-(((2S,5R)-5-(Ethylsulfonamido)tetrahydro-2H-pyran-2-yl)methyl)-2,7-diazaspiro[3.5]nonan-2-yl)pyrimidin-5-yl)oxy)-5-fluoro-N-((1r,3r)-3-hydroxycyclobutyl)-N-isopropylbenzamide] | < 100 nM | – | – |
| CCN(C(=O)c1cc(F)ccc1Oc1cncnc1N1CC2(CCN(C[C@@H]3CC[C@@H](NS(=O)(=O)c4ccc(=O)n(C)c4)CO3)CC2)C1)C(C)C [Example 74, N-Ethyl-5-fluoro-N-isopropyl-2-((4-(7-(((2S,5R)-5-((1-methyl-6-oxo-1,6-dihydropyridine)-3-sulfonamido)tetrahydro-2H-pyran-2-yl)methyl)-2,7-diazaspiro[3.5]nonan-2-yl)pyrimidin-5-yl)oxy)benzamide] | < 100 nM | – | – |
| CC(C)N(CC(F)F)C(=O)c1cc(F)ccc1Oc1nncnc1N1CC2(CCN(C[C@@H]3CC[C@@H](NS(=O)(=O)c4cnn(C)c4)CO3)CC2)C1 [Example 187, N-(2,2-Difluoroethyl)-5-fluoro-N-isopropyl-2-((5-(7-(((2S,5R)-5-((1-methyl-1H-pyrazole)-4-sulfonamido)tetrahydro-2H-pyran-2-yl)methyl)-2,7-diazaspiro[3.5]nonan-2-yl)-1,2,4-triazin-6-yl)oxy)benzamide] | < 100 nM | – | – |
| CC(C)N(C(=O)c1cc(F)ccc1Oc1cncnc1N1CC2(CCN(C[C@@H]3CC[C@@H](NS(=O)(=O)N4CCC[C@H]4C)CO3)CC2)C1)[C@@H]1CCOC1 [Example 204, 5-Fluoro-N-isopropyl-2-((4-(7-(((2S,5R)-5-(((R)-2-methylpyrrolidine)-1-sulfonamido)tetrahydro-2H-pyran-2-yl)methyl)-2,7-diazaspiro[3.5]nonan-2-yl)pyrimidin-5-yl)oxy)-N-((R)-tetrahydrofuran-3-yl)benzamide] | < 100 nM | – | – |
| Cc1nc(S(=O)(=O)N[C@@H]2CC[C@@H](CN3CCC4(CC3)CN(c3ncncc3Oc3ccc(F)cc3C(=O)N(C(C)C)[C@H]3CCOC3)C4)OC2)cs1 [Example 135, 5-Fluoro-N-isopropyl-2-((4-(7-(((2S,5R)-5-((2-methylthiazole)-4-sulfonamido)tetrahydro-21H-pyran-2-yl)methyl)-2,7-diazaspiro[3.5]nonan-2-yl)pyrimidin-5-yl)oxy)-N-((S)-tetrahydrofuran-3-yl)benzamide] | < 100 nM | – | – |
| COC[C@H]1CCCN1S(=O)(=O)N[C@@H]1CC[C@@H](CN2CCC3(CC2)CN(c2ncncc2Oc2ccc(F)cc2C(=O)N(C(C)C)C(C)C)C3)OC1 [Example 212, 5-Fluoro-N,N-diisopropyl-2-((4-(7-(((2S,5R)-5-(((R)-2-(methoxymethyl)pyrrolidine)-1-sulfonamido)tetrahydro-2H-pyran-2-yl)methyl)-2,7-diazaspiro[3.5]nonan-2-yl)pyrimidin-5-yl)oxy)benzamide] | < 100 nM | – | – |
